Here are results for 9 compounds from patent US20240360157A1, “TYK2 INHIBITORS” (BIOGEN MA INC., priority 2021, published 2024).

Structures can show the parent of a compound that is named as a salt.

Holding throughout (format): biochemical
Test [1] concerns the target human TYK2 catalytic kinase (JH1) domain (Homo sapiens (Human), UniProt P29597). Briefly: ADP-Glo Kinase Assay, recombinant TYK2 catalytic kinase (JH1) domain. To be noted: recombinant JH1 domain 2 nM, 10 μM ATP, JAK3-974 peptide, mean, read-out: TYK2 biochem IC50 (nM) Mean. In a few lines:
(§1)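 Reactions ran 100 min with 50 μM substrate peptide (JAK3-342 for JAK1 at 4 nM enzyme; JAK3-974 for JAK2 0.2 nM, JAK3 0.3 nM, TYK2 2 nM), and ADP formed was read by ADP-Glo luminescence. Eleven-point 3-fold series from 10 or 1 μM; IC50 fitted by 4-parameter logistic model.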

The target in test [2] is human JAK1 catalytic kinase (JH1) domain (Homo sapiens (Human), UniProt P23458). As to the kind of experiment: ADP-Glo Kinase Assay, recombinant JAK1 catalytic kinase (JH1) domain. Particulars: recombinant JH1 domain 4 nM, 35 μM ATP, JAK3-342 peptide, mean, read-out: JAK1 biochem IC50 (nM) Mean. The method, boiled down: as §1
Sequence of human JAK1 catalytic kinase (JH1) domain (P23458 875-1153): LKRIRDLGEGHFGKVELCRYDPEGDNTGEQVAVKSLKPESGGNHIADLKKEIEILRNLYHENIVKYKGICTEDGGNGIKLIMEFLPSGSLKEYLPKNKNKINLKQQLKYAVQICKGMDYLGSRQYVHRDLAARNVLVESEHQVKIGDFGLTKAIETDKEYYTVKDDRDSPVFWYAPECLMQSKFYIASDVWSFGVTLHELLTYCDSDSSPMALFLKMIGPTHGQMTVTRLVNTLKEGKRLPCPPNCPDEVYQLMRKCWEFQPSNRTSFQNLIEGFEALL
In test [3] the target is human JAK3 catalytic kinase (JH1) domain (Homo sapiens (Human), UniProt P52333). As to the kind of experiment: ADP-Glo Kinase Assay, recombinant JAK3 catalytic kinase (JH1) domain. Particulars: recombinant JH1 domain 0.3 nM, 4 μM ATP, JAK3-974 peptide, mean, read-out: JAK3 biochem IC50 (nM) Mean. In a few lines:
as §1
On the technique in general: In ADP-Glo the light output rises with the ADP produced.

Test [4] addresses human JAK2 catalytic kinase (JH1) domain (Homo sapiens (Human), UniProt O60674). As to the kind of experiment: ADP-Glo Kinase Assay, recombinant JAK2 catalytic kinase (JH1) domain. To be noted: recombinant JH1 domain 0.2 nM, 15 μM ATP, JAK3-974 peptide, mean, read-out: JAK2 biochem IC50 (nM) Mean. The method, boiled down:
as §1

Sequence of human JAK2 catalytic kinase (JH1) domain (O60674 849-1124): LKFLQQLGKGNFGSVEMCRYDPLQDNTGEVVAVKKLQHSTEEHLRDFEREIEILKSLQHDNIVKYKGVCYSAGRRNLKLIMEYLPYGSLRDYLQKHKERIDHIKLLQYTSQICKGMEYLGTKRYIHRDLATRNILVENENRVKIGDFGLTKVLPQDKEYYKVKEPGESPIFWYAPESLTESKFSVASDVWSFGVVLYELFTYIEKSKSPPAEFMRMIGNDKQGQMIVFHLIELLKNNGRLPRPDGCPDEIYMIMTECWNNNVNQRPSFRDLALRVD
Sequence of human TYK2 catalytic kinase (JH1) domain (P29597 897-1176): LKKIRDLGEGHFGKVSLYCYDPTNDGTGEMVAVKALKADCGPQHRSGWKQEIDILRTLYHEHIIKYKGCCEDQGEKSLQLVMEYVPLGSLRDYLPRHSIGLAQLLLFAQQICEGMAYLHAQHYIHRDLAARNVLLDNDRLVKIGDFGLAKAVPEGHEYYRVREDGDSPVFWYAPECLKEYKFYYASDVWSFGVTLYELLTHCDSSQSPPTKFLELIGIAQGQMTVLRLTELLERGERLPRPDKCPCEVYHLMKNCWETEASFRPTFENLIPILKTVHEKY
Sequence of human JAK3 catalytic kinase (JH1) domain (P52333 822-1111): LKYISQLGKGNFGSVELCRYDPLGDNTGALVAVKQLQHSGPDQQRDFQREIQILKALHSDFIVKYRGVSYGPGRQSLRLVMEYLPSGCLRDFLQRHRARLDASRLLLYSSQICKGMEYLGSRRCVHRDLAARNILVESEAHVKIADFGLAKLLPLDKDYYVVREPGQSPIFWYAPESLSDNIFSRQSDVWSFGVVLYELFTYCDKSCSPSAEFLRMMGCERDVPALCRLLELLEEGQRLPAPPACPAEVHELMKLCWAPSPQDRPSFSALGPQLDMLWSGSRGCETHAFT

On to `O=C(C1CC1)N1C2CCC1CN(c1ncnn3cc(-c4ccncc4)cc13)C2` [Example 181], for which the IC50 (commonly the point on the concentration scale where inhibition reaches its midpoint) was determined as 229 nM in test [1], 1040 nM in test [2], 5520 nM in test [3] and 7860 nM in test [4].
The like results for `N#C[C@@H]1C[C@H]1C(=O)N1C2CCC1CN(c1ncnn3cc(-c4cnn(C(F)F)c4)cc13)C2` (single isomer, unassigned) [Example 78] were, in that order, 120 nM, 869 nM, 6880 nM and 1510 nM.
Turning to `CCOC1CC1C(=O)N1C2CCC1CN(c1ncnn3cc(-c4cnn(C(F)F)c4)cc13)C2` (stereo not drawn) [Example 35, (3-(6-(1-(difluoromethyl)-1H-pyrazol-4-yl)pyrrolo[2,1-f][1,2,4]triazin-4-yl)-3,8-diazabicyclo[3.2.1]octan-8-yl)(2-ethoxycyclopropyl)methanone trifluoroacetate], the IC50 in test [1] was 856 nM; in test [2], 4660 nM; in test [3], 10000 nM; in test [4], 10000 nM.
Consider `Cn1cc(-c2cn3nccc(N4CC5CCC(C4)N5C(=O)[C@@H]4C[C@H]4F)c3n2)cn1` [Example 252, ((1S,2R)-2-fluorocyclopropyl)(3-(2-(1-methyl-1H-pyrazol-4-yl)imidazo[1,2-b]pyridazin-8-yl)-3,8-diazabicyclo[3.2.1]octan-8-yl)methanone], for which the IC50 in test [1] amounted to 4 nM; in test [2] it was 28 nM; in test [3], 269 nM; in test [4], 28 nM.
Turning to `Cn1cc(-c2cc3c(N4CC5CCC(C4)N5C(=O)[C@@H]4C[C@H]4F)ncnn3c2)c(F)n1` [Example 96, (3-(6-(3-fluoro-1-methyl-1H-pyrazol-4-yl)pyrrolo[2,1-f][1,2,4]triazin-4-yl)-3,8-diazabicyclo[3.2.1]octan-8-yl)((1S,2R)-2-fluorocyclopropyl)methanone], the IC50 in test [1] came to 13.7 nM; in test [2], 718 nM; in test [3] it was 3270 nM; in test [4], 422 nM.
The like results for `CC(C)n1ncc(-c2cc3c(N4CC5CCC(C4)N5C(=O)C4CC4)ncnn3c2)c1F` [Example 162] were, in that order, 94.9 nM, 210 nM, 1250 nM and 1620 nM.
For the compound `N#C[C@H]1C[C@@H]1C(=O)N1C2CCC1CN(c1ncnn3cc(-c4cnn(C(F)F)c4)cc13)C2` (racemic) [Example 53, Rac-(1S,2S)-2-(3-(6-(1-(difluoromethyl)-1H-pyrazol-4-yl)pyrrolo[2,1-f][1,2,4]triazin-4-yl)-3,8-diazabicyclo[3.2.1]octane-8-carbonyl)cyclopropane-1-carbonitrile], the IC50 turned out to be 166 nM in test [1], 840 nM in test [2], 7370 nM in test [3] and 3380 nM in test [4].
With `Cn1cc(-c2cc3c(N4CC5CCC(C4)N5C(=O)C4CC4(F)F)ncnn3c2)cn1` (stereo not drawn) [Example 63, (2,2-difluorocyclopropyl)(3-(6-(1-methyl-1H-pyrazol-4-yl)pyrrolo[2,1-f][1,2,4]triazin-4-yl)-3,8-diazabicyclo[3.2.1]octan-8-yl)methanone], the IC50 in test [1] was 117 nM; in test [2], 787 nM; in test [3] it was 4530 nM; in test [4], 3050 nM.
`Cn1cc(-c2nc3c(N4CC5CCC(C4)N5C(=O)[C@@H]4C[C@H]4F)ccnc3[nH]2)cn1` [Example 200, ((1S,2R)-2-fluorocyclopropyl)(3-(2-(1-methyl-1H-pyrazol-4-yl)-3H-imidazo[4,5-b]pyridin-7-yl)-3,8-diazabicyclo[3.2.1]octan-8-yl)methanone]: the IC50 in test [1] stood at 0.4 nM; in test [2] it was 9 nM; in test [3], 78 nM; in test [4], 6 nM.
